Like-named read-outs stand apart in the source and are kept apart here.
Key:
[1] = test system: Myogenin; experiment: Myogenin expression (Western blot) in CCM-treated C2C12 myotubes; type: cell-based, mouse; conditions: 72 hours, compared to other experimental groups (components alone and in combination)
Method: (§1) A C2C12 cell line was dispensed into a 6-well plate at 4.0×10^5 cells/well, and then cultured in DMEM medium containing 10% fetal bovine serum (FBS) under 37° C. and 5% CO2 conditions for one day. When the cell density reached about 80%, the medium was replaced with a differentiation medium and the cells were cultured for additional 3 days. After confirming completion of differentiation of the cells, the cells were treated with a mixture, in which the differentiation medium and cancer-cell conditioned medium (CCM) were mixed at a 1:1 ratio, to form a control group, and simultaneously, a test group was set up by treating with the calcium salts of Preparation Examples 1 to 3 according to three predetermined concentrations.
(§2) A C2C12 cell line was dispensed into a 6-well plate at 4.0×10^5 cells/well, and then cultured in DMEM medium containing 10% fetal bovine serum (FBS) under 37° C. and 5% CO2 conditions for one day. When the cell density reached about 80%, the medium was replaced with a differentiation medium and the cells were cultured for additional 3 days.

[2] = test system: Myogenin; experiment: Myogenin expression in mouse muscle tissue, CT26 cachexia model; type: in vivo, Balb/c mice; conditions: CT26 Balb/c cachexia model, 21 days
From the text: (§5) The mice were sacrificed, and the skeletal muscle in the quadriceps was extracted during autopsy, and tissue was homogenized, and proteins were extracted through RIPA lysis buffer, followed by Western blot analysis.

[3] = test system: Atrogin1; experiment: Atrogin1 expression in mouse muscle tissue, CT26 cachexia model; type: in vivo, Balb/c mice; conditions: CT26 Balb/c cachexia model, 21 days
From the text: as §5

[4] = Drug concentration in blood and pharmacokinetics factors after IV and PO administration; type: in vivo; conditions: SD rats
Method: After the administration of each individual rat, blood was collected according to the elapsed time (0 to 48 hours), centrifuged, and the concentration of the administered drug in the blood and the pharmacokinetic factors (PK parameter) of the obtained plasma were analyzed through LC/MS/MS analysis, and the results are summarized in Table 1 below.

[5] = test system: IL-1β; experiment: IL-1β in mouse blood, CT26 cachexia model; type: in vivo, Balb/c mice; conditions: CT26 Balb/c cachexia model, 21 days; G4 PO 200 mpk, G5 IV 100 mpk, G6 IV 200 mpk; vs vehicle control G2
Method: (§3) The mice were sacrificed, and IL-1β and lactate were analyzed using the blood serum collected at autopsy, and the results are summarized in FIGS. 48A and 48B.
(§4) In FIG. 48, each group represents the following.

[6] = test system: Atrogin1; experiment: Atrogin1 expression (Western blot) in CCM-treated C2C12 myotubes; type: cell-based, mouse; conditions: 72 hours, compared to other experimental groups (components alone and in combination)
Method: as §1, §2

[7] = test system: lactate; experiment: Lactate in mouse blood, CT26 cachexia model; type: in vivo, Balb/c mice; conditions: CT26 Balb/c cachexia model, 21 days; G4 PO 200 mpk, G5 IV 100 mpk, G6 IV 200 mpk; vs vehicle control G2
Method: as §3, §4

[8] = test system: skeletal muscle (gastrocnemius, quadriceps, and soleus); conditions: CT26 Balb/c cachexia model, 21 days
Method: A CT26 mouse colorectal cancer cell line was subcutaneously transplanted into Balb/c mice to construct a syngeneic model, and the calcium salt (Asc-Ca-DCA) of Preparation
Example 1 was administered to the mice for a total of 21 days. The mice were sacrificed, and three types of skeletal muscle (gastrocnemius, quadriceps, and soleus) were extracted at autopsy, and histopathological analysis was performed. Cross-sectional images of muscle tissue were obtained, and the muscle fiber cross-sectional area (CSA) was measured, and the results are summarized in FIGS. 50 to 52.
In FIGS. 50 to 52, each group represents the following. […] Scale bars inserted in A to F of FIGS. 50 to 52 represent a horizontal length of 100 μm.

[9] = target: T1, human recombinant cyclooxygenase COX-2 (Homo sapiens, UniProt P35354); experiment: Inhibition of COX2 (Ampliflu Red spectrofluorescence); type: biochemical; conditions: 10 μM, compared with untreated group
T1 construct: host or cells: insect Sf21 cells
T1 sequence (P35354 18-604): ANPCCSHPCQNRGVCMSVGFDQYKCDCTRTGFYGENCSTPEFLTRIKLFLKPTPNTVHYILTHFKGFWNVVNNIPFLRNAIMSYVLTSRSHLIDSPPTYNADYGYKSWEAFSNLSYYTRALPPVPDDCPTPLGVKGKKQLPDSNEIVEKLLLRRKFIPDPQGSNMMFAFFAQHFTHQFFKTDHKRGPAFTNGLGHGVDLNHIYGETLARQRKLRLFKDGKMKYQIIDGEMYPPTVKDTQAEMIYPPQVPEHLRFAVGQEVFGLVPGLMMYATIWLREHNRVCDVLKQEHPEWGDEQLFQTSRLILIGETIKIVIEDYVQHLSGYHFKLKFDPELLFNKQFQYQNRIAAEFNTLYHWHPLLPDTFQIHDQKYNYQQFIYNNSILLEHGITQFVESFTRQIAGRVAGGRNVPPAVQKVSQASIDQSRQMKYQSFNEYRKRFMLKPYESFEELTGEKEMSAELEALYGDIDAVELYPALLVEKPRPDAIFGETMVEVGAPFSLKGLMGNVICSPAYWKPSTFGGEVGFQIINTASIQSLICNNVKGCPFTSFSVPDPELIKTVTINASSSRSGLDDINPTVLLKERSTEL
Method: At this time, the concentration of the calcium salt contained in the buffer solution was set to 10 μM. As an enzyme, 34 U/mL of human recombinant cyclooxygenase COX-2 expressed in insect Sf21 cells was further added to the buffer solution, and pre-reacted at 25° C. for 15 minutes. In addition, 3 μM arachidonic acid and 100 μM Ampliflu Red were added and reacted at 25° C. for 3 minutes. The amount of Resofurin produced in the reaction process was measured at 535 nm/590 nm by a spectrofluorescence method, and the inhibitory effect on COX2 was confirmed by comparing with the calcium salt untreated group.

[10] = G4 PO 200 mpk, G5 IV 100 mpk, G6 IV 200 mpk, vs vehicle control G2
[11] = G4 to G6, compared to G3 megestrol 125 mpk oral
[12] = PO 2,000 mg/kg (1,000 mg/kg, BID), 1 day
[13] = PO 2,000 mg/kg (1,000 mg/kg, BID), 6 days

## O=C([O-])C(Cl)Cl.O=C1OC(C(O)CO)C([O-])=C1O.[Ca+2] (stereo not shown) [Preparation Example 1, calcium salts of ascorbic acid and dichloroacetic acid]
[1]
  expression of Myogenin: excellent effect of inhibiting the decrease of expression
[2]; [10]
  expression level of Myogenin in quadriceps: increase in the expression levels
[2]; [11]
  expression of Myogenin in quadriceps: increasing the expression
[3]; [10]
  expression level of Atrogin1 in quadriceps: decrease in the expression levels
[3]; [11]
  expression level of Atrogin1 in quadriceps: excellent effects decreasing the expression levels
[4]; IV 200 mg/kg, 1 day
  AUClast: 19770 ng·h/mL
  Cmax: 30240 ng/mL
  Tmax: 0.25 h
  t1/2: 0.27 h
[4]; IV 200 mg/kg, 6 days
  AUClast: 7980 ng·h/mL
  Cmax: 2700 ng/mL
  Tmax: 0.00 h
  t1/2: 2.72 h
[4]; PO 200 mg/kg, 1 day
  AUClast: 38780 ng·h/mL
  Cmax: 23910 ng/mL
  Tmax: 0.50 h
  t1/2: 0.59 h
[4]; PO 200 mg/kg, 6 days
  AUClast: 34620 ng·h/mL
  Cmax: 6260 ng/mL
  Tmax: 0.00 h
  t1/2: 2.72 h
[4]; PO 500 mg/kg, 1 day
  AUClast: 353650 ng·h/mL
  Cmax: 66440 ng/mL
  Tmax: 1.50 h
  t1/2: 4.14 h
[4]; PO 500 mg/kg, 6 days
  AUClast: 147850 ng·h/mL
  Cmax: 21280 ng/mL
  Tmax: 0.00 h
  t1/2: 5.58 h
[4]; [12]
  AUClast: 889770 ng·h/mL
  Cmax: 130920 ng/mL
  Tmax: 1.75 h
  t1/2: 5.64 h
[4]; [13]
  AUClast: 575250 ng·h/mL
  Cmax: 77200 ng/mL
  Tmax: 0.00 h
  t1/2: 3.11 h
[5]
  IL-1β in blood serum: decrease in the expression levels
[6]
  expression of Atrogin1: excellent effect of inhibiting the increase of expression
[7]
  lactate in blood serum: decrease in the expression levels
[8]; [10]
  cross-sectional area of muscle tissue (gastrocnemius, quadriceps, soleus): increased the cross-sectional area
[8]; G4 to G6, compared to G3 megestrol 125 mpk
  cross-sectional area of muscle tissue (gastrocnemius, quadriceps, soleus): level similar
[9]
  inhibitory effect on COX2: 74%

Reference: US20240408057A1, “Composition for preventing or treating cachexia and muscle loss” (METAFINES.CO.LTD., priority 2023, published 2024)
